Assay results from PMC12375108 (Nature Communications, 2025).

Key:
Format in all cases: binding
[1] = target: T1, H. sapiens hinT H112N (human hinT^HN) (Homo sapiens, UniProt P49773, H112N); experiment: competition pulldown with sucA-AMP, α-AMP immunoblot; settings: GST-tagged hinT on beads, sucA-AMP 470 nM, GMP up to 11.75 μM, TBS with Triton X-100, 1 mM DTT, 4 °C; competitive
T1 construct: gene HINT1
T1 sequence (P49773 1-126 H112N): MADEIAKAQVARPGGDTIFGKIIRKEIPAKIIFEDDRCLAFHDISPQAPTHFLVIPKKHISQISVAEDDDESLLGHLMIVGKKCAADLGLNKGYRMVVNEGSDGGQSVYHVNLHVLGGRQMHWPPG

[2] = target: T2, T. marianensis hinT H100N (Tm hinT^HN) (Thermaerobacter marianensis, UniProt E6SKA2, H100N); experiment: isothermal titration calorimetry
T2 construct: gene Tmar_2180; expressed from pProEx in E. coli BL21, 6xHis cut by TEV, SEC

[3] = target: T1, H. sapiens hinT H112N (human hinT^HN); experiment: isothermal titration calorimetry
[4] = target: T3, E. coli hinT H101N (Ec hinT^HN) (Escherichia coli, UniProt P0ACE7, H101N); experiment: isothermal titration calorimetry
T3 construct: expressed from pProEx in E. coli BL21, 6xHis cut by TEV, SEC; ATG replaces native TTG start
T3 sequence (P0ACE7 1-119 H101N): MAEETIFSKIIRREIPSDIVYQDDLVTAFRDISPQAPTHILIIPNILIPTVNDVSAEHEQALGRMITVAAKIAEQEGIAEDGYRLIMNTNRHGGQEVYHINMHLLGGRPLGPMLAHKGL

Q: `Nc1nc2c(ncn2[C@@H]2O[C@H](COP(=O)(O)O)[C@@H](O)[C@H]2O)c(=O)[nH]1` [GMP] was tested. Which “competition pulldown with sucA-AMP, α-AMP immunoblot” value [1] did it give?
A: increasing concentrations of GMP showed weaker competition with AMPylated proteins for binding to Hs hinT^HN

Q: `Nc1ncnc2c1ncn2[C@@H]1O[C@H](COP(=O)(O)O)[C@@H](O)[C@H]1O` [AMP] was tested. Which Kd [2] did it give?
A: 3 µM

Q: What about the Kd [3] of the same compound?
A: 0.279 µM

Q: And the Kd [4]?
A: 69 µM
